Data as given in patent publication US20210220370A1, “SELECTIVE HDAC8 INHIBITORS AND THEIR USES” (HOCHSCHULE DARMSTADT, priority 2015, published 2021).
Like-named read-outs stand apart in the source and are kept apart here.

Experiments:
[1] = test system: uterine leiomyosarcoma cell line SKUT-1; test: Growth inhibition of cancer cell line, resazurin assay; format: cell-based, Human; conditions: Table 2, resazurin assay
[2] = test system: T cell leukemia cell line JURKAT; test: as above; conditions: for GI50: read-out: GI50 JURKAT
[3] = test system: breast cancer cell line MCF-7; test: as above; format: cell-based, Human; conditions: Table 2, resazurin assay
HDAC7 = target: T1, HDAC7 (Homo sapiens, UniProt Q8WUI4); test: HDAC7 colorimetric assay, substrate Boc-Lys(TFA)-AMC
T1 sequence (Q8WUI4 1-952): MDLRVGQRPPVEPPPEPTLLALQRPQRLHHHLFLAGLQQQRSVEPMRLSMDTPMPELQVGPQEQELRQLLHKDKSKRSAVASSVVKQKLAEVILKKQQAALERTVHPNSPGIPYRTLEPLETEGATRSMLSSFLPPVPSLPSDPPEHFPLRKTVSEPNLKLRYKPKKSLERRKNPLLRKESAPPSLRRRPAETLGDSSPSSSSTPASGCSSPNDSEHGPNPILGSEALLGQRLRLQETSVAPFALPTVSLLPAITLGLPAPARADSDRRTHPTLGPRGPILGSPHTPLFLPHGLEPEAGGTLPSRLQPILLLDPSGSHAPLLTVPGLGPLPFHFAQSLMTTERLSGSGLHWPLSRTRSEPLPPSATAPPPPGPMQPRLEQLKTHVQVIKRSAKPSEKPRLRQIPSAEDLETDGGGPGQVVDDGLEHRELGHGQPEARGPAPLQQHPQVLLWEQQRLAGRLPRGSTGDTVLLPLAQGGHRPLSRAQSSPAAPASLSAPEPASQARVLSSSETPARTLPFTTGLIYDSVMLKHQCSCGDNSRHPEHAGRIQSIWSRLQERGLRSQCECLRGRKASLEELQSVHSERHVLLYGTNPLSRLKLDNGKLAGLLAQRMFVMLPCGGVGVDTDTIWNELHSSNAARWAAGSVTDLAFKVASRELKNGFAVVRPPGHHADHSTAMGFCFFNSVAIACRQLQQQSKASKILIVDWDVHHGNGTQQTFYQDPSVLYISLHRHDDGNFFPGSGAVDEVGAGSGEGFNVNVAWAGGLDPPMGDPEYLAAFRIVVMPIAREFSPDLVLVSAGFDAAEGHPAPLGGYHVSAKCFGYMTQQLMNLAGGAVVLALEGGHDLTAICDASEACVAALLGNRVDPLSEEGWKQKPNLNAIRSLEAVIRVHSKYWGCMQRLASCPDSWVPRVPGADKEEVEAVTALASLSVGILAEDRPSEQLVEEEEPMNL

HDAC6 = target: T2, HDAC6 (Homo sapiens, UniProt Q9UBN7); test: HDAC6 colorimetric assay, substrate Boc-Lys(Ac)-AMC; format: biochemical
T2 sequence (Q9UBN7 1-1215): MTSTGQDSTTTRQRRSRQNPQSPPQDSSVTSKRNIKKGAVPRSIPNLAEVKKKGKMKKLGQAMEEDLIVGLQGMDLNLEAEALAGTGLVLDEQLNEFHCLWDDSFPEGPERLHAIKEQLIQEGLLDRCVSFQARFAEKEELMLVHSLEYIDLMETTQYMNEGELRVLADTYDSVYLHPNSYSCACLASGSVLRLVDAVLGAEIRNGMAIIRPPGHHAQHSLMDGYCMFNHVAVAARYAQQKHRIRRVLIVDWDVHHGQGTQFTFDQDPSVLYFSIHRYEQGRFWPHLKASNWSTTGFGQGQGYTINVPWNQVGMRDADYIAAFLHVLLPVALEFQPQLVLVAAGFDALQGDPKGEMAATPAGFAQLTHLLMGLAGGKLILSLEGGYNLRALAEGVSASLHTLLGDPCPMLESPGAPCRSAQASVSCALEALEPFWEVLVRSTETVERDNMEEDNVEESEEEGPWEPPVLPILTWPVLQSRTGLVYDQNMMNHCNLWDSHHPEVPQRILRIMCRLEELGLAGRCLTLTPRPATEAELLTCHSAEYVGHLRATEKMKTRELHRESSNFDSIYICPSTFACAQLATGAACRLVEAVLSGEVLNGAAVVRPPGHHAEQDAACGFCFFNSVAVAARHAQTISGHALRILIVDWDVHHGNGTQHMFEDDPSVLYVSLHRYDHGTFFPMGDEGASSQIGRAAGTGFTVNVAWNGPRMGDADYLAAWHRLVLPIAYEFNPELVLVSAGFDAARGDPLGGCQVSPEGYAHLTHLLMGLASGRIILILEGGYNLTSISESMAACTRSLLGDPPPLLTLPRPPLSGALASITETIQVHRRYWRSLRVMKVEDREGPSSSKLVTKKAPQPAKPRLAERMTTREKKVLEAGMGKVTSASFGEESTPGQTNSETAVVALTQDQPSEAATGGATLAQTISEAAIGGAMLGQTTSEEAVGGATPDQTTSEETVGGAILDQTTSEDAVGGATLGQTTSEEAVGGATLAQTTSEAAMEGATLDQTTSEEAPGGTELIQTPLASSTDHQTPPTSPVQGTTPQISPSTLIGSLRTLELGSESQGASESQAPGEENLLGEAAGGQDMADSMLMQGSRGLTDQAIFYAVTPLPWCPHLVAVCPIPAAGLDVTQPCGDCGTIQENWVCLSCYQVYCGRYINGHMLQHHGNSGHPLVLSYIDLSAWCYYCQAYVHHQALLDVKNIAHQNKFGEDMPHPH

HDAC2 = HDAC2 (Homo sapiens, UniProt Q92769); test: HDAC2 colorimetric assay, substrate Boc-Lys(Ac)-AMC; format: biochemical
HDAC5 = HDAC5 (Homo sapiens, UniProt Q9UQL6); test: HDAC5 colorimetric assay, substrate Boc-Lys(TFA)-AMC
HDAC1 = HDAC1 (Homo sapiens, UniProt Q13547); test: HDAC1 colorimetric assay, substrate Boc-Lys(Ac)-AMC
Procedure: 1 nM of HDAC1 was incubated with increasing concentrations of the respective compound for 30 minutes at 30° C. The reaction was initiated by addition of 50 μM of the substrate Boc-Lys(Ac)-AMC. After an incubation of 60 minutes the reaction was stopped by addition of 20 μM SAHA and the deacetylated substrate was converted into a fluorescent product by the addition of trypsin.

HDAC8 = target: T3, HDAC8 (Homo sapiens, UniProt Q9BY41); test: HDAC8 colorimetric assay, substrate Boc-Lys(TFA)-AMC
T3 sequence (Q9BY41 1-377): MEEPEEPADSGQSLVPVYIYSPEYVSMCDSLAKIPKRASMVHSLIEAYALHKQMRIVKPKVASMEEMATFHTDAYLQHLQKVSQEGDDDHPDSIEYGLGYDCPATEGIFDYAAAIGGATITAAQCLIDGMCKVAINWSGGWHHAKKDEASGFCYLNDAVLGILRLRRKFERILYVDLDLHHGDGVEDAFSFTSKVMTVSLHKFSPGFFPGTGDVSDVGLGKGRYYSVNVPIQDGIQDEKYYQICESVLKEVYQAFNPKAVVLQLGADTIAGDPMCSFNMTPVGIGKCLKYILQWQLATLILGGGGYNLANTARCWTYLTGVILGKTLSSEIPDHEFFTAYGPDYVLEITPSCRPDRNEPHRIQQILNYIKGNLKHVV
Procedure: 1 nM of HDAC4 was incubated with increasing concentrations of the respective compound for 30 minutes at 30° C. The reaction was initiated by addition of 20 μM of the substrate Boc-Lys(trifluoracetyl)-AMC. After an incubation of 60 minutes the reaction was stopped by addition of 20 μM SAHA and the deacetylated substrate was converted into a fluorescent product by the addition of trypsin.

HDAC3 = HDAC3 (Homo sapiens, UniProt O15379); test: HDAC3 colorimetric assay, substrate Boc-Lys(Ac)-AMC; format: biochemical; conditions: Table 1
HDAC4 = HDAC4 (Homo sapiens, UniProt P56524); format: biochemical; conditions: Table 1
[4] = IC50 for HDAC7, FIG. 3, 20 μM Boc-Lys(TFA)-AMC
[5] = IC50 for HDAC8, FIG. 3, 20 μM Boc-Lys(TFA)-AMC
[6] = IC50 for HDAC1, FIG. 3, 50 μM Boc-Lys(Ac)-AMC

HDAC5, sequence (Q9UQL6 whole entry): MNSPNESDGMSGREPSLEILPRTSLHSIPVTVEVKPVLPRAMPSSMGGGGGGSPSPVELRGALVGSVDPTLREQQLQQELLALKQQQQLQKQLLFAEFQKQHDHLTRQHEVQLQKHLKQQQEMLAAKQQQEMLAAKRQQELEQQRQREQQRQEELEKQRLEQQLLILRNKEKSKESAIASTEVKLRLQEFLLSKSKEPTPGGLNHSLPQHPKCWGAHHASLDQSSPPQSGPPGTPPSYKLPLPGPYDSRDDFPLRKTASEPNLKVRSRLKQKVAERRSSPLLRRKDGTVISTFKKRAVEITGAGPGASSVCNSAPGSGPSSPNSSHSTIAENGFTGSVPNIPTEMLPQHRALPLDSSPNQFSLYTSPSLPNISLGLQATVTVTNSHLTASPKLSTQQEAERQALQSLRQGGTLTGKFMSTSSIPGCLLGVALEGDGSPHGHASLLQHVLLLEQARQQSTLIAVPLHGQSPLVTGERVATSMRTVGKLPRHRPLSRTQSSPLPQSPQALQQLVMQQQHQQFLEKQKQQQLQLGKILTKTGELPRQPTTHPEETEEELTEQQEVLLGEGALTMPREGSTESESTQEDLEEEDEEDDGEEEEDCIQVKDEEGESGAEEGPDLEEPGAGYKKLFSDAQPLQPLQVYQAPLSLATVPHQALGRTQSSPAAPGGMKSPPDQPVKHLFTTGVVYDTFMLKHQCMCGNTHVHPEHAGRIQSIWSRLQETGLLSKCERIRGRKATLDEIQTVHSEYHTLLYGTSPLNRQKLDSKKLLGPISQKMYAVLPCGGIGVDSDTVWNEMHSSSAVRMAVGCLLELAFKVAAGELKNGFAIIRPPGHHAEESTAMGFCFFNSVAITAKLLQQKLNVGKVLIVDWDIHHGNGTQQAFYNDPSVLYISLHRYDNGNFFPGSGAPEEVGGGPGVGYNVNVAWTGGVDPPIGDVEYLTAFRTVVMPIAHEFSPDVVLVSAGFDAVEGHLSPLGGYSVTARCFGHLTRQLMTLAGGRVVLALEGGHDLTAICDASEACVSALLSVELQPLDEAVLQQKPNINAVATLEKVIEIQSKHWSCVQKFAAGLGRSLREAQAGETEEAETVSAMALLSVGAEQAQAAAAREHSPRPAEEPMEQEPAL
HDAC4, sequence (P56524 whole entry): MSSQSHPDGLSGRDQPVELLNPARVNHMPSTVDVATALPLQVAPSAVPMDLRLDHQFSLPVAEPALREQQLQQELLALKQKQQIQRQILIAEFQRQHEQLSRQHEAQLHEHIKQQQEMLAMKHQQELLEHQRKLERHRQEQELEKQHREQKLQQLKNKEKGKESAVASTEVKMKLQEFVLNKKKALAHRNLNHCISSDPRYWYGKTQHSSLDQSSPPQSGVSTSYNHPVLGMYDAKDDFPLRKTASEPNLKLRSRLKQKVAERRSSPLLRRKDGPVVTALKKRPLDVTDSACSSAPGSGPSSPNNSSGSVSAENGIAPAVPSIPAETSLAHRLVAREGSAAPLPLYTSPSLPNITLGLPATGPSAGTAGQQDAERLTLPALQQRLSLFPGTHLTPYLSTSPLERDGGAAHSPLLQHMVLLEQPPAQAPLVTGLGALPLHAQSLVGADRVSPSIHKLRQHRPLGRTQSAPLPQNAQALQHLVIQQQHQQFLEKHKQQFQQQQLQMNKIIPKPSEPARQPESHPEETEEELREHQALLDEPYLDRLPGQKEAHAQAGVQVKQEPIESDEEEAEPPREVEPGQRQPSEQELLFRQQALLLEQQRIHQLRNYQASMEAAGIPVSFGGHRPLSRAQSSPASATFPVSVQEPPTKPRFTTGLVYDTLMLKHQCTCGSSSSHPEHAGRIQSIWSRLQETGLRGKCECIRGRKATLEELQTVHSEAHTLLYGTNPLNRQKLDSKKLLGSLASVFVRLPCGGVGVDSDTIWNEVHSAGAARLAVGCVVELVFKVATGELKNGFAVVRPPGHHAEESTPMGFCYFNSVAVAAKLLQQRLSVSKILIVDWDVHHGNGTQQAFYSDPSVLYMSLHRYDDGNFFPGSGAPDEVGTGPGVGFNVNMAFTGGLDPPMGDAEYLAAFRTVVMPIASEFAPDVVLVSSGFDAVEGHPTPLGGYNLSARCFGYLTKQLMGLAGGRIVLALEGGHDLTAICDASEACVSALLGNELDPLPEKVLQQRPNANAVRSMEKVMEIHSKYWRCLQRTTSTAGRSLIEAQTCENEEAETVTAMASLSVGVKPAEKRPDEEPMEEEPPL
HDAC3, sequence (O15379 whole entry): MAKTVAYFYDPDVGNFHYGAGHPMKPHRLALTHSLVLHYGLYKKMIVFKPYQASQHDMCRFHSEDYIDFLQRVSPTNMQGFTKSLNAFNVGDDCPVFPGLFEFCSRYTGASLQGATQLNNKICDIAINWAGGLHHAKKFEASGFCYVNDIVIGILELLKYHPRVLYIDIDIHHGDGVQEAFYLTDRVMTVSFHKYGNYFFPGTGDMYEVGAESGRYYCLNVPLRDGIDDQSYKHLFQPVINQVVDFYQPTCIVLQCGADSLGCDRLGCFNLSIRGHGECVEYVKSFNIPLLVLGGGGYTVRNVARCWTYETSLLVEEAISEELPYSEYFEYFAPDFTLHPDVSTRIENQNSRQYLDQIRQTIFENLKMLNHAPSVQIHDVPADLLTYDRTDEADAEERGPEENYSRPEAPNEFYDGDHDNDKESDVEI
HDAC3, sequence (Q9Y618 395-489 partner limits assumed): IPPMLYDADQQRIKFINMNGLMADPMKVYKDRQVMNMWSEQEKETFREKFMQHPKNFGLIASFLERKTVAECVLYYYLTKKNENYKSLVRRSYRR
HDAC2, sequence (Q92769 whole entry): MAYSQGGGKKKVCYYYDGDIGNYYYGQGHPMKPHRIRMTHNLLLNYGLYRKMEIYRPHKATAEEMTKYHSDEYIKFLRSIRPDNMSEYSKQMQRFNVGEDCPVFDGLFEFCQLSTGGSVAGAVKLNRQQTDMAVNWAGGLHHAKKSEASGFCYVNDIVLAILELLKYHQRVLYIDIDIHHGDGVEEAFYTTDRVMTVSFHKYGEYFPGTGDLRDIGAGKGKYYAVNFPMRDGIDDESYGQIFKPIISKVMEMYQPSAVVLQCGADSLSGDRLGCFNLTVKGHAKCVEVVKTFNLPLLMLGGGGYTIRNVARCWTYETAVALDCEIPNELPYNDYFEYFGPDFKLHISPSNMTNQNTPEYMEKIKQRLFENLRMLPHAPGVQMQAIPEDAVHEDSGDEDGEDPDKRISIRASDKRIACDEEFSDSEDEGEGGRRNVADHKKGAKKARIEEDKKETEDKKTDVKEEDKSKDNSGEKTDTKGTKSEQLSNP
HDAC1, sequence (Q13547 whole entry): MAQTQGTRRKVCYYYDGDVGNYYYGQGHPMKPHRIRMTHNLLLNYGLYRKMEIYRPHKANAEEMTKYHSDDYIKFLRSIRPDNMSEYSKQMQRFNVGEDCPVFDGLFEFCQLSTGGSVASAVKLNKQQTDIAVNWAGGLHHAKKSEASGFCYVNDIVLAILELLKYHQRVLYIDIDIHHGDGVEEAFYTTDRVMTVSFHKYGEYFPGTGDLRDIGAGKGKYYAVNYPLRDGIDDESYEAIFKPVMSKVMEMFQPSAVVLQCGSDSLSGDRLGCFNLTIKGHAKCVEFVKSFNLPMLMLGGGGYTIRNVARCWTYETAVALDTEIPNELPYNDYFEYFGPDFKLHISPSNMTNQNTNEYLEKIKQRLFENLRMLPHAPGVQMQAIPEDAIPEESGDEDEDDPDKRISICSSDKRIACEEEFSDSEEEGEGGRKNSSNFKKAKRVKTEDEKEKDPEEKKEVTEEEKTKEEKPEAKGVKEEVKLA

GI50 ([1]; Homo sapiens, SK-UT-1) | GI50 ([2]; Homo sapiens, Jurkat) | GI50 ([3]; Homo sapiens, MCF7) | IC50 (HDAC1; IC50 HDAC1, Table 1) | IC50 (HDAC7; IC50 HDAC7, Table 1) | IC50 (HDAC6; Table 1, read-out: IC50 HDAC6) | IC50 (HDAC2; Table 1) | IC50 (HDAC8; IC50 HDAC8, Table 1) | IC50 (HDAC3) | IC50 (HDAC5) | IC50 (HDAC4) | IC50 (HDAC1; [6]) | Compound | other results
> 1000 µM | 56 ± 9 µM | > 1000 µM | – | – | 1.2 ± 0.4 µM | > 50 µM | 5.9 ± 0.3 nM | 20 ± 1 µM | 1000 nM | 5.7 ± 0.3 µM | 7.9 µM | N=C1Sc2ccc(Cl)cc2C2=NCCCN12 [Compound 13e, 10-Chloro-3,4-Dihydrobenzo[e]Pyrimido[1,2-c][1,3]Thiazin-6(2H)-Imine] | IC50 (HDAC7; [4]): 80 nM; IC50 (HDAC8; [5]): 5.5 nM
147 ± 73 µM | 33 ± 3 µM | > 1000 µM | 2.9 ± 0.3 µM | 2600 ± 400 nM | 9 ± 4 µM | > 50 µM | 4.1 ± 0.2 nM | 10 ± 0.56 µM | 170 ± 20 nM | 2.84 ± 0.13 µM | – | N=C1Sc2cc(F)ccc2C2=NCCCN12 [Compound 13f, 9-Fluoro-3,4-Dihydrobenzo[e]Pyrimido[1,2-c][1,3]Thiazin-6(2H)-Imine] | –
76 ± 7 µM | 30 ± 3 µM | > 1000 µM | 1.7 ± 0.2 µM | 1700 ± 200 nM | 2.8 ± 0.7 µM | > 50 µM | 2.9 ± 0.1 nM | 6.7 ± 0.4 µM | 140 ± 20 nM | 2 ± 0.1 µM | – | N=C1Sc2cc(Br)ccc2C2=NCCCN12 [Compound 13g, 9-Bromo-3,4-Dihydrobenzo[e]Pyrimido[1,2-c][1,3]Thiazin-6(2H)-Imine] | –
> 1000 µM | 42 ± 3 µM | > 1000 µM | 35 ± 3 µM | 5000 ± 1000 nM | 5.2 ± 1.1 µM | > 50 µM | 17 ± 1 nM | > 50 µM | 740 ± 160 nM | 5.1 ± 0.6 µM | – | N=C1Sc2c(F)cccc2C2=NCCCN12 [Compound 13h, 8-Fluoro-3,4-dihydrobenzo[e]pyrimido[1,2-c][1,3]thiazin-6(2H)-imine] | –

Further lines, the compound ahead of its results:

Compound | GI50 ([1]; Homo sapiens, SK-UT-1) | GI50 ([2]; Homo sapiens, Jurkat) | GI50 ([3]; Homo sapiens, MCF7) | IC50 (HDAC1; IC50 HDAC1, Table 1) | IC50 (HDAC7; IC50 HDAC7, Table 1) | IC50 (HDAC6; Table 1, read-out: IC50 HDAC6) | IC50 (HDAC2; Table 1) | IC50 (HDAC8; IC50 HDAC8, Table 1) | IC50 (HDAC3) | IC50 (HDAC5) | IC50 (HDAC4) | IC50 (HDAC1; [6]) | other results
O=C(CCCCCCC(=O)Nc1ccccc1)NO [Compound 1, Vorinostat, reference compound] | 5.4 ± 0.4 µM | 3.7 ± 0.4 µM | 3.7 ± 0.4 µM | – | – | – | – | – | – | – | – | – | –
COc1ccc(Cn2ccc3ccc(C(=O)NO)cc32)cc1 [Compound 6, PCI-34051, reference compound] | – | – | – | – | – | – | – | – | – | – | – | – | GI50 ([1]; read-out: GI50 SK-UT-1): 136 ± 62 µM; GI50 ([2]; Table 2, resazurin assay): 40 ± 4 µM; GI50 ([3]; read-out: GI50 MCF7): 65 ± 18 µM
N=C1Sc2ccccc2C2=NCCCN12 [Compound 13a, 3,4-Dihydrobenzo[e]Pyrimido[1,2-c][1,3]Thiazin-6(2H)-Imine] | 736 ± 659 µM | 63 ± 8 µM | > 1000 µM | 3.6 ± 0.8 µM | – | – | – | – | – | – | – | – | IC50 (HDAC7; read-out: IC50 HDAC7, Table 1): 220 ± 20 nM; IC50 (HDAC6): 6.7 ± 0.8 µM; IC50 (HDAC2): 32 ± 1.5 µM; IC50 (HDAC5; read-out: IC50 HDAC5, Table 1): 110 ± 10 nM; GI against JURKAT cells [2]: 63 µM; times less active against JURKAT cells than on the isolated HDAC8 enzyme ([2]; ratio of JURKAT value to HDAC8 IC50): more than 5700
N=C1Sc2ccccc2C2=NCCN12 [Compound 13b, 2H-Benzo[e]Imidazo[1,2-c][1,3]Thiazin-5(3H)-Imine] | 343 ± 191 µM | 558 ± 342 µM | 213 ± 50 µM | > 50 µM | 1300 ± 700 nM | > 50 µM | > 50 µM | 4400 ± 800 nM | > 50 µM | > 50000 nM | > 50 µM | – | –
N=C1Sc2ccc(Cl)cc2C2=NCCN12 [Compound 13c, 9-Chloro-2H-Benzo[e]Imidazo[1,2-c][1,3]Thiazin-5(3H)-Imine] | 64 ± 7 µM | 67 ± 8 µM | 60 ± 6 µM | 21 ± 1 µM | 500 ± 200 nM | 32 ± 18 µM | > 50 µM | 180 ± 20 nM | > 50 µM | 13000 nM | > 50 µM | 20 µM | IC50 (HDAC7; [4]): 510 nM; IC50 (HDAC8; [5]): 200 nM
CN(C)c1ccc2c(c1)SC(=N)N1CCCN=C21 [Compound 13d, 6-Imino-N,N-Dimethyl-2,3,4,6-Tetrahydrobenzo[e]Pyrimido[1,2-c][1,3]Thiazin-9-Imine] | 106 ± 21 µM | 153 ± 28 µM | 200 ± 58 µM | – | 2000 ± 500 nM | 14 ± 1 µM | > 50 µM | 72 ± 3 nM | > 50 µM | 12000 nM | > 50 µM | 34 µM | IC50 (HDAC7; [4]): 2100 nM; IC50 (HDAC8; [5]): 71 nM
N=C1Sc2ccccc2C2=NCCCN12 [Compound P2742, 6H-6-Imino-(2,3,4,5-tetrahydropyrimido)[1,2-c]-[1,3]benzothiazine, reference compound] | – | – | – | – | – | – | – | – | – | – | – | 3 µM | IC50 (HDAC7): 240 nM; IC50 (HDAC5; read-out: IC50 for HDAC5, FIG. 3, 20 μM Boc-Lys(TFA)-AMC): 110 nM
